The compounds below were run against T1, human placental aromatase (Homo sapiens, UniProt P11511) (assay: Human placental aromatase assay ([3H]-H2O release), in vitro). Conditions: 1 mM NADPH, read-out: Aromatase inhibitory activity - in vitro IC₅₀.
T1 construct: Human placental aromatase was assayed according to the method of Thomson and Siiteri; from tissue; host or cells: human placenta
T1 sequence (P11511 1-503): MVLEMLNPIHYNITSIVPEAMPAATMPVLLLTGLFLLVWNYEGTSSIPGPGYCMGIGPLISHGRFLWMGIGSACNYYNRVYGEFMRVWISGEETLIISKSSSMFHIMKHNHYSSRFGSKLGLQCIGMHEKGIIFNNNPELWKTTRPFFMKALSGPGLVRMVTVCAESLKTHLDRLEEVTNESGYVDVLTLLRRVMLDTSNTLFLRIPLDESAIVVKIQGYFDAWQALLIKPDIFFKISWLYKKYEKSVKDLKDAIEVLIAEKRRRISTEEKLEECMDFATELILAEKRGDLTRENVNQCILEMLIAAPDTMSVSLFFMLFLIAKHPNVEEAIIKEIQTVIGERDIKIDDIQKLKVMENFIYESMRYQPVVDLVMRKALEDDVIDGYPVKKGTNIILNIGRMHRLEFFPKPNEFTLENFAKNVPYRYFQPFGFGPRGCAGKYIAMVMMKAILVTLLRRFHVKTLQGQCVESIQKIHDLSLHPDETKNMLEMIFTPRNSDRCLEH
Format: biochemical
Method: Aromatase inhibitory activity may be determined using human placental aromatase.
Human placental aromatase was assayed according to the method of Thomson and Siiteri, Hormone Res. (1979) 11:179-185, except that the assay buffer contained 1 mM NADPH instead of the NADPH-generating system. [³H]-H₂O, released as a by-product of aromatization, was separated from substrate using C18 mini-columns.
`CC1(C)OC(=O)c2ccc(C(c3ccc(C#N)cc3)n3cncn3)cc21` (racemic) [Example 7, 4-[(3,3-Dimethyl-1-oxo-1,3-dihydro-isobenzofuran-5-yl)-1,2,4-triazol-1 - ylmethyl]-benzonitrile] showed an IC50 of 73 nM. For `CC1(C)OC(=O)c2ccc(C(c3c(F)cc(C#N)cc3F)n3cncn3)cc21` (stereo not shown) [Example 3, 4-[(3.3-Dimethyl-1-oxo-1,3-dihydro-isobenzofuran-5-yl)-1,2,4-triazol-1-ylmethyl]-3,5-difluorobenzonitrile], the IC50 was 24 nM. Work on `CC1(C)OC(=O)c2ccc(C(c3ccc([N+](=O)[O-])cc3F)n3cncn3)cc21` (stereo not shown) [Example 2, 5-[(2-Fluoro-4-nitrophenyl)-1,2,4-triazol-1-ylmethyl]-3,3-dimethyl-3H-isobenzofuran-1-one] yielded an IC50 of 63 nM. Work on `CC1(C)OC(=O)c2ccc(C(c3ccc(C#N)cc3F)n3cncn3)cc21` (stereo not shown) [Example 6, 4-[(3,3-Dimethyl-1-oxo-1,3-dihydro-isobenzofuran-5-yl)-1,2,4-triazol-1 - ylmethyl]-3-fluorobenzonitrile] yielded an IC50 of 83 nM. `CC1(C)OC(=O)c2ccc(C(c3c(F)cc([N+](=O)[O-])cc3F)n3cncn3)cc21` (racemic) [Example 1, 5-[(2,6-Difluoro-4-nitrophenyl)-1,2,4-triazol-1-ylmethyl]-3,3-dimethyl-3H-isobenzofuran-1-one] showed an IC50 of 15 nM. For `CC1(C)OC(=O)c2ccc(C(c3ccc([N+](=O)[O-])cc3)n3cncn3)cc21` (stereo not shown) [Example 5, 5-[(4-Nitrophenyl)-1,2,4-triazol-1-ylmethyl]-3,3-dimethyl-3H-isobenzofuran-1-one], the IC50 was 51 nM.

These compounds were tested on mouse (assay: Acute toxicity study, single oral doses). Conditions: single doses up to 2g/kg p.o.
Format: in vivo
With `CC1(C)OC(=O)c2ccc(C(c3c(F)cc([N+](=O)[O-])cc3F)n3cncn3)cc21` (racemic) [Example 1, 5-[(2,6-Difluoro-4-nitrophenyl)-1,2,4-triazol-1-ylmethyl]-3,3-dimethyl-3H-isobenzofuran-1-one] the “Acute toxicity (tolerability)” value was “well tolerated”.

Source: patent publication EP0574992A1, “5-(1,2,4-Triazol-1-ylmethyl)-3H-isobenzofuran-1-one derivatives, their preparation and use as aromatase inhibitors” (GLAXO GROUP LIMITED, priority 1992, dated 1993)
